{"source": "patent US20110224297A1", "about": "“Methods of administering prostratin and structural analogs thereof” (priority 2008, published 2011)", "key": {"[1]": {"system": "PBMCs", "conditions": "alone or in conjunction with other activators; cited from earlier work"}, "[2]": {"system": "rhesus macaque monkeys", "assay": "Preliminary pharmacokinetic study in monkeys (mortality)", "type": "in vivo", "conditions": "intravenous bolus 0.8 mg/kg; respiratory failure shortly after injection", "protocol": "During a preliminary pharmacokinetic study, rhesus macaque monkeys were administered an intravenous bolus of prostratin at 0.4 mg/kg and 0.8 mg/kg. The monkey in 0.8 mg/kg died due a respiratory failure shortly after injection. Plasma samples from these monkeys were sent to NIH and plasma concentration of prostratin was measure along with other samples at NIH using the LC/MS/MS assay."}, "[3]": {"assay": "Stability of prostratin in mouse plasma", "type": "in vitro ADME", "conditions": "24 hr incubation at 37° C.", "protocol": "Prostratin is stable in plasma and buffer as well as in the stability formulation (see below) developed for in vivo studies in mice. Stability tests for prostratin in mouse and monkey plasma were done using two concentration (1 and 10 mg/ml) and two temperatures (Room Temperature (RT) and 37° C.). The only loss of drug occurred in mouse plasma after 24 hr incubation at 37° C. This represented only 14% decrease in parent drug peak area over this time frame. Prostratin is stable in PBS (phosphate buffer saline) at pH 2 and pH 7."}, "[4]": {"system": "latently infected U1 cells", "assay": "HIV expression (reverse transcriptase activity in supernatant) in latently infected U1 cells", "type": "cell-based", "protocol": "The effect of prostratin on virus replication was assessed in latently infected ACH-2 and U1 cells by measuring the accumulation of reverse transcriptase activity in the supernatant of stimulated cells (Gustafson et al., 1992, J Med Chem 35(11): 1978-86).\nBriefly, 4×10^4 cells in 100 μl fresh medium were mixed with another 100 μl of medium with or without prostratin or PMA in a 96-well microtiter plate. Plates were incubated for 24-72 h at 37° C. Following incubation, supernatants were harvested, centrifuged (to remove any residual cells) and tested for reverse transcriptase activity as previously described (Gustafson et al., 1992, J Med Chem 35(11): 1978-86).\nIn these experiments, two concentrations of cells were tested (40,000 and 100,000 cells/well). It is noteworthy that the basal levels of reverse transcriptase activities were much higher in ACH-2 cells than in U1 cells."}}, "data": [{"smiles": "CC(=O)O[C@@]12C[C@@H](C)[C@@]3(O)[C@@H](C=C(CO)C[C@]4(O)C(=O)C(C)=C[C@@H]34)[C@@H]1C2(C)C", "note": "[prostratin, 12-deoxyphorbol 13-acetate]", "values": [{"measurement": "individuals on suppressive HAART whose PBMCs showed stimulated HIV-1 production", "setting": "[1]", "result": "4 out of 6"}, {"measurement": "mortality", "setting": "[2]", "result": "died"}, {"measurement": "decrease in parent drug peak area", "setting": "[3]", "result": 14, "unit": "%"}, {"measurement": "exposure time needed to observe acceptable reverse transcriptase activity", "setting": "[4]", "result": "at least 48 h"}, {"measurement": "lowest dose to get a reliable increase in reverse transcriptase activity", "setting": "[4]", "result": 50, "unit": "ng/mL"}, {"measurement": "short incubation (pulsed stimulation) time leading to detectable reverse transcriptase activity", "setting": "[4]; none after 1 h and 4 h", "result": 6, "unit": "h"}]}]}
